Laboratory results as given in patent publication US20230241243A1, “CARRIER PARTICLE-DRUG CONJUGATES, SELF-IMMOLATIVE LINKERS, AND USES THEREOF” (priority 2020, published 2023).

How the values were obtained:
[1] = Drug-release assay of nanoparticle-conjugated linker-payloads under cleavage conditions (Cat-B, redox-responsive or pH-sensitive cleaving study), RP-HPLC; assay type: in vitro ADME; settings: linker-payload conjugated to DBCO-functionalized silica nanoparticle, 37° C., 24 hours
Method in brief: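 Azide linker-drugs were click-conjugated to DBCO-functionalized ultrasmall silica nanoparticles and incubated under cleavage conditions, e.g., Cat-B in 25 mM MES, 5 mM DTT, pH 5.0. Released versus non-released drug was quantified by C18 RP-HPLC peak area. Gradients were 0.01% TFA water/acetonitrile for protease/redox linkers and water/acetonitrile for pH-sensitive linkers.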

KB cell line = settings: read-out: IC50 in KB cell line (++++); FA ligands per particle 12-22; linker-drug conjugates per particle 17-25
Experimental: (§1) The in vitro cytotoxicity of the NDCs disclosed herein were tested in cancer cells. The cancer cells were cultured in folic acid-free medium (RPMI1640, ThermoFisher, GIBCO) for at least one week before the study. Cells were plated in opaque 96-well plates at a density of 3×10^3 cells per well (total of […]) and allowed to attach overnight. The following day, cells were treated with NDC (FA-CDC) prepared using the linker-payload conjugate precursor compound 202 (Example 33), at a concentration range of 0-50 nM (0, 0.001, 0.005, 0.01, 0.05, 0.1, 0.5, 1, 5, 10, 50 nM) by adding […] of 10x stock FA-CDC Solution.
(§2) Cells were treated for a pre-defined exposure time (depending on the study design, e.g., 4-6 hours, or 7 days). In the case of short-exposure-time viability study, cancer cells in each wells were washed with […] PBS and refreshed with […] of cell medium. After washing, the plates were returned back to 37° C. incubator for 7 days before the viability assay. In the case of 7-day-exposure-time viability study, no additional washing step was performed. After 7 days, the cell viability was assessed using the CellTiter-Glo2.0 assay (Promega) according to manufacturer's instructions. Data for both viability and proliferation were plotted using Prism7 software (GraphPad).

SKOV-3 cell line = test: In vitro cell viability assay of FA-CDCs (CellTiter-Glo2.0); assay type: cell-based; settings: FA ligands per particle 12-22; linker-drug conjugates per particle 17-25; read-out: IC50 inSKOV-3 cell line (+++)
Experimental: as §1
as §2, with “(GraphPad). Representative cell viability results of six FA-CDCs with similar surface density of Folic Acid targeting ligands and drug linkers is presented in provided in Table 4.” for “(GraphPad).”

With `CC[C@@]1(O)C(=O)OCc2c1cc1n(c2=O)Cc2c-1nc1cc(F)c(C)c3c1c2[C@@H](NC(=O)OCCSSCCNC(=O)CCOCCOCCOCCOCCOCCOCCOCCOCCOCCN=[N+]=[N-])CC3` [Example 57, 37-azido-8-oxo-11,14,17,20,23,26,29,32,35-nonaoxa-3,4-dithia-7-azaheptatriacontyl ((1S,9S)-9-ethyl-5-fluoro-9-hydroxy-4-methyl-10,13-dioxo-2,3,9,10,13,15-hexahydro-1H,12H-benzo[de]pyrano[3′,4′:6,7]indolizino[1,2-b]quinolin-1-yl)carbamate] the “% of Payload Release in 24 Hours Under Cleavage Conditions” value (“% of Payload Release” for short) [1] was “+++ (‘+++’ indicates 51-75% release)”, the IC50 (KB cell line) was 0.6 nM and the IC50 (SKOV-3 cell line) was 0.9 nM.
Molecule `CCc1c2c(nc3ccc(OCC(=O)N/N=C(\C)c4cccc(OCCOCCOCCOCCOCCOCCN=[N+]=[N-])c4)cc13)-c1cc3c(c(=O)n1C2)COC(=O)[C@]3(O)CC` [Example 70, (S,E)-N′-(1-(3-((17-azido-3,6,9,12,15-pentaoxaheptadecyl)oxy)phenyl)ethylidene)-2-((4,11-diethyl-4-hydroxy-3,14-dioxo-3,4,12,14-tetrahydro-1H-pyrano[3′,4′:6,7]indolizino[1,2-b]quinolin-9-yl)oxy)acetohydrazide] has an IC50 (SKOV-3 cell line) of 17.9 nM.
With `CC[C@@]1(O)C(=O)OCc2c1cc1n(c2=O)Cc2c-1nc1cc(F)c(C)c3c1c2[C@@H](NC(=O)OCc1ccc(NC(=O)[C@H](CCCCN)NC(=O)[C@@H](NC(=O)CCOCCOCCOCCOCCOCCOCCOCCOCCOCCN=[N+]=[N-])C(C)C)cc1)CC3` [Example 33, 4-((32S,35S)-35-(4-aminobutyl)-1-azido-32-isopropyl-30,33-dioxo-3,6,9,12,15,18,21,24,27-nonaoxa-31,34-diazahexatriacontan-36-amido)benzyl ((1S,9S)-9-ethyl-5-fluoro-9-hydroxy-4-methyl-10,13-dioxo-2,3,9,10,13,15-hexahydro-1H,12H-benzo[de]pyrano[3′,4′:6,7]indolizino[1,2-b]quinolin-1-yl)carbamate] the “% of Payload Release” value [1] was “++++ (‘++++’ indicates 76-100% release)”, the IC50 (KB cell line) was 0.3 nM and the IC50 (SKOV-3 cell line) was 0.13 nM.
With `CC[C@@]1(O)C(=O)OCc2c1cc1n(c2=O)Cc2c-1nc1cc(F)c(C)c3c1c2[C@@H](NC(=O)OCc1ccc(NC(=O)[C@H](CCCNC(N)=O)NC(=O)[C@@H](NC(=O)CCOCCOCCOCCOCCOCCOCCOCCOCCOCCN=[N+]=[N-])C(C)C)cc1)CC3` [Example 10, 4-((32S,35S)-1-azido-32-isopropyl-30,33-dioxo-35-(3-ureidopropyl)-3,6,9,12,15,18,21,24,27-nonaoxa-31,34-diazahexatriacontan-36-amido)benzyl-((1S,9S)-9-ethyl-5-fluoro-9-hydroxy-4-methyl-10,13-dioxo-2,3,9,10,13,15-hexahydro-1H,12H-benzo-[de]-pyrano-[3′,4′:6,7]-indolizino-[1,2-b]-quinolin-1-yl)-carbamate] the “% of Payload Release” value [1] was “+++ (‘+++’ indicates 51-75% release)” and the IC50 (SKOV-3 cell line) was 10.7 nM.
With `CC[C@@]1(O)C(=O)OCc2c1cc1n(c2=O)Cc2c-1nc1cc(F)c(C)c3c1c2[C@@H](NC(=O)OCc1ccc(NC(=O)[C@H](CCCCN)NC(=O)[C@H](Cc2ccccc2)NC(=O)CCOCCOCCOCCOCCOCCOCCOCCOCCOCCN=[N+]=[N-])cc1)CC3` (single isomer, unassigned) [Example 25] the “% of Payload Release” value [1] was “+++ (‘+++’ indicates 51-75% release)” and the IC50 (SKOV-3 cell line) was 0.4 nM.
